Measured values reported in US12187715B2, “Small molecule activators of Tie-2” (EyePoint Pharmaceuticals, Inc., priority 2019, dated 2025).
Values joined by “and” are separate entries in the source; they are usually repeats but may differ in a detail not shown here. Equal entries are not always repeated.

Columns and labels:
[1] = Physical stability (appearance) of the aqueous solutions standing at room temperature; assay type: physicochemical; conditions: for Gelation or precipitation of undiluted solution: throughout the 4-week study period (Compound 2: over 5 weeks); for Appearance of solution: undiluted
[2] = HPLC purity analyses of aqueous solutions over time at room temperature (chemical stability); assay type: physicochemical
[3] = 50% diluted samples, room temperature, T = 4 weeks
[4] = undiluted samples, T = 0 (dry sample)
[5] = undiluted samples, room temperature, T = 5 weeks
[6] = undiluted samples, room temperature, T = 1 day

Gelation or precipitation of undiluted solution [1]	Appearance of solution ([1]; T = 0)	Appearance of solution ([1]; T = 2 week)	Appearance of solution ([1]; T = 3 week)	Appearance of solution ([1]; T = 4 week)	Appearance of solution ([1]; T = 1 day)	Appearance of solution ([1]; T = 2 day)	Appearance of solution ([1]; T = 3 day)	Appearance of solution ([1]; T = 4 day)	Appearance of solution ([1]; T = 5 day)	Appearance of solution ([1]; T = 6 day)	HPLC purity [2, 3]	HPLC purity [2, 4]	HPLC purity [2, 5]	HPLC purity [2, 6]	Time until precipitation was observed ([1]; 50% diluted solution)	Time until solution started to show haziness ([1]; undiluted solution)	HPLC purity ([2]; 50% diluted samples, room temperature, T = 6 weeks (reanalysis))	HPLC purity ([2]; undiluted samples, room temperature, T = 7 weeks (reanalysis))	SMILES
No gelation or precipitation	Clear	Clear	Clear	Clear	Clear	Clear	Clear	Clear	Clear	Clear	97.69%	98.72%	96.53%	98.2%					COC(=O)N(C)[C@@H](Cc1ccccc1)C(=O)N(C)[C@@H](Cc1ccc(NS(=O)(=O)[O-])cc1)c1csc(-c2cccs2)n1.[Na+] [Compound 4, sodium (4-{(S)-2-{(S)-2-[(methoxycarbonyl)(methyl)amino]-N-methyl-3-phenylpropanamido}-2-[2-(thiophen-2-yl)thiazol-4-yl]ethyl}phenyl)sulfamate]
gradually developed a precipitate	Clear	Precipitate	Precipitate	Precipitate	Clear	Clear	Slightly hazy	Small precipitate	Small precipitate	Precipitate	82%	99.59%	88.99%	98.7%	about 2.5 months	3 days	96.9% and 96.95%	93.9% and 93.93%	COC(=O)N(C)[C@@H](Cc1ccccc1)C(=O)N[C@@H](Cc1ccc(NS(=O)(=O)[O-])cc1)c1csc(-c2cccs2)n1.[Na+] [Compound 2, sodium (4-{(S)-2-{(S)-2-[(methoxycarbonyl)(methyl)amino]-3-phenylpropanamido}-2-[2-(thiophen-2-yl)thiazol-4-yl]ethyl}phenyl)sulfamate]
